One experiment addresses T1, CK1α (Homo sapiens, UniProt P48729+Q96SW2).
T1 construct: effects of the compounds of the present disclosure on the expression of target proteins in cells; endogenous in cells; host or cells: human PBMCs (Milecell Biotechnologies)
Nature of the experiment: Western blot, degradation of substrate protein in hPBMCs. The experiment is classed as cell-based. The conditions noted are these: Western blot, 24 hours of compound treatment, compounds tested at 50 nM and 500 nM (concentration for the table not stated).

The target of the next experiment is T2, IKZF1 (Homo sapiens, UniProt Q13422+Q96SW2).
T2 construct: effects of the compounds of the present disclosure on the expression of target proteins in cells; endogenous in cells; host or cells: human PBMCs (Milecell Biotechnologies)
Described as above. The experiment is classed as cell-based. The conditions noted are these: Western blot, 24 hours of compound treatment, compounds tested at 50 nM and 500 nM (concentration for the table not stated). Background: A western blot detects proteins with antibodies after separation by electrophoresis.

Another experiment addresses T3, IKZF2 (Homo sapiens, UniProt Q96SW2+Q9UKS7).
T3 construct: effects of the compounds of the present disclosure on the expression of target proteins in cells; endogenous in cells; host or cells: human PBMCs (Milecell Biotechnologies)
Described as above. The class given is cell-based. The conditions noted are these: Western blot, 24 hours of compound treatment, compounds tested at 50 nM and 500 nM (concentration for the table not stated).

A further experiment has as its target T4, IKZF3 (Homo sapiens, UniProt Q96SW2+Q9UKT9).
T4 construct: effects of the compounds of the present disclosure on the expression of target proteins in cells; endogenous in cells; host or cells: human PBMCs (Milecell Biotechnologies)
The description is as above. The class given is cell-based. The following applies: Western blot, 24 hours of compound treatment, compounds tested at 50 nM and 500 nM (concentration for the table not stated).

In the next experiment the target is T5, WEE1 (Homo sapiens, UniProt P30291+Q96SW2).
T5 construct: effects of the compounds of the present disclosure on the expression of target proteins in cells; endogenous in cells; host or cells: human PBMCs (Milecell Biotechnologies)
The description is as above. The following applies: Western blot, 24 hours of compound treatment, compounds tested at 50 nM and 500 nM (concentration for the table not stated). The class given is cell-based.

In a further experiment the test system is GSPT1. The experiment is described as above. The class given is cell-based, Human. The following applies: Western blot, 24 hours of compound treatment, compounds tested at 50 nM and 500 nM (concentration for the table not stated).
Experiment [1] deals with T6, human Cereblon WT GST-tagged protein (Homo sapiens, UniProt Q96SW2).
T6 construct: purchased CISBIO 64BDCRBNPEH
The experiment in a line: CRBN-binding affinity, HTRF (CEREBLON BINDING kit). The conditions noted are these: for inhibition at 0.5 µM: read-out: Inhibition Rate at 0.5 µM (%); for inhibition at 2 µM: read-out: Inhibition Rate at 2 µM (%).

T4 sequence (Q9UKT9 whole entry): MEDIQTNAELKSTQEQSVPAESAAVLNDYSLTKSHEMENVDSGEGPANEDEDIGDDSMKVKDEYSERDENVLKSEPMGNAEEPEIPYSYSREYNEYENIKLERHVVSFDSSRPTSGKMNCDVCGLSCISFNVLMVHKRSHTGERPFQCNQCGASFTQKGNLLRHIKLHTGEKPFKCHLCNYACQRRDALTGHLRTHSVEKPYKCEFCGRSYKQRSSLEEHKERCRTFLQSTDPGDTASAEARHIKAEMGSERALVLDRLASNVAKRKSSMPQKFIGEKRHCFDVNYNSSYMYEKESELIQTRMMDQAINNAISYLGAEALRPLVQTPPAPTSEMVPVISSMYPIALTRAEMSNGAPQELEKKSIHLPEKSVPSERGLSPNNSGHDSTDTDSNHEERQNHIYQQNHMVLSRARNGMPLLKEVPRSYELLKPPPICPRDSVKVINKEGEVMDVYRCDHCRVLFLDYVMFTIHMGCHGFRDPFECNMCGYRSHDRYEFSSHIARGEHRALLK
T4 sequence (Q96SW2 whole entry): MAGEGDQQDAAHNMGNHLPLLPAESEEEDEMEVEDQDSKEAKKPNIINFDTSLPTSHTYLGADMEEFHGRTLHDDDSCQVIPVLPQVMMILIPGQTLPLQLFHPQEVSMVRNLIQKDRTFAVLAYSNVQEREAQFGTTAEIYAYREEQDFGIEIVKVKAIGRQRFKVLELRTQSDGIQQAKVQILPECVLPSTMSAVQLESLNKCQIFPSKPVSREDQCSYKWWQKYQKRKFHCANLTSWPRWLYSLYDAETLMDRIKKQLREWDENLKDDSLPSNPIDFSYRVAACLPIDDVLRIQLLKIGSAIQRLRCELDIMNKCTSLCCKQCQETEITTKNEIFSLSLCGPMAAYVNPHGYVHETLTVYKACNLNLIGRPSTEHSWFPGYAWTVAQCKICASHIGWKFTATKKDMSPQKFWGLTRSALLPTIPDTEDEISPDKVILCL
T4 sequence (Q16531 whole entry partner): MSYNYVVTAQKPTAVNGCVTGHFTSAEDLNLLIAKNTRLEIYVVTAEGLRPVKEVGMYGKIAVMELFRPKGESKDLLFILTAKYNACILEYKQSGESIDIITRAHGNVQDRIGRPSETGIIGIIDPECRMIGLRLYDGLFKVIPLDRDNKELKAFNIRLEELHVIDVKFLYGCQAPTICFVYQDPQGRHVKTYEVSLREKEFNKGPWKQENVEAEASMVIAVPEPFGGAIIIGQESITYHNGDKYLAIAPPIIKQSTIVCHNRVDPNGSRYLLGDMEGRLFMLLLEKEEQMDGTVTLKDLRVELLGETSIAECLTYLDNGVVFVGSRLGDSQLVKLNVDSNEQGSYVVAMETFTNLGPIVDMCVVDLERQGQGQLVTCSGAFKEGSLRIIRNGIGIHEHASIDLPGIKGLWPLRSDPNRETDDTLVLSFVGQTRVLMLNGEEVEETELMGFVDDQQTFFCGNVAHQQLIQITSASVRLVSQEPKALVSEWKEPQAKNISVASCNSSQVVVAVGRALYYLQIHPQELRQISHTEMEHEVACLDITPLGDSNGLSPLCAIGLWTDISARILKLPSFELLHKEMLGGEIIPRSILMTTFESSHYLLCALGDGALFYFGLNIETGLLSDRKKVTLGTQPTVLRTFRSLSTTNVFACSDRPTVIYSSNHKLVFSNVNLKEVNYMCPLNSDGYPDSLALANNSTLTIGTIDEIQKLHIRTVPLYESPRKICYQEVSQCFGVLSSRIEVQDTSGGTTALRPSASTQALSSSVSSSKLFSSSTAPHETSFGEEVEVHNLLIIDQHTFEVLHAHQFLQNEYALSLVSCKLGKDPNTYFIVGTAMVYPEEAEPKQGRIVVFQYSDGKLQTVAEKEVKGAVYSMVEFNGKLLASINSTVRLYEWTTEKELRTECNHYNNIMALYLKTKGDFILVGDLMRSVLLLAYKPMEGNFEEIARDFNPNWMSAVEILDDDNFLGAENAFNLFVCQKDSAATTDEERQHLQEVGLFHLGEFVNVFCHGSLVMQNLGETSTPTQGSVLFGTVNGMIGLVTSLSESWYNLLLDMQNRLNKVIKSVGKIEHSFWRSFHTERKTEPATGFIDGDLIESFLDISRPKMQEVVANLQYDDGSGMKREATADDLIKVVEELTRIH
T1 sequence (P48729 whole entry): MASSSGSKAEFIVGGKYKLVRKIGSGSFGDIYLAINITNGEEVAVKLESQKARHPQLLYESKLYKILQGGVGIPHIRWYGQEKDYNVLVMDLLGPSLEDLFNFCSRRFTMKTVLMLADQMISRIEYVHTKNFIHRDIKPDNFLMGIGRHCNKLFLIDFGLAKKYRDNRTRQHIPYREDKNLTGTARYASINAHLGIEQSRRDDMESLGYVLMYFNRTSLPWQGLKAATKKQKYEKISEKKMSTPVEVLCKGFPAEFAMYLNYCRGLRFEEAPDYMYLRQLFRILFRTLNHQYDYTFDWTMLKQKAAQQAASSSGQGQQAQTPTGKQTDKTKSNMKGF
T1 sequence (Q96SW2 whole entry): as the sequence (Q96SW2 whole entry) above
T1 sequence (Q16531 whole entry partner): as the sequence (Q16531 whole entry partner) above
T3 sequence (Q9UKS7 whole entry): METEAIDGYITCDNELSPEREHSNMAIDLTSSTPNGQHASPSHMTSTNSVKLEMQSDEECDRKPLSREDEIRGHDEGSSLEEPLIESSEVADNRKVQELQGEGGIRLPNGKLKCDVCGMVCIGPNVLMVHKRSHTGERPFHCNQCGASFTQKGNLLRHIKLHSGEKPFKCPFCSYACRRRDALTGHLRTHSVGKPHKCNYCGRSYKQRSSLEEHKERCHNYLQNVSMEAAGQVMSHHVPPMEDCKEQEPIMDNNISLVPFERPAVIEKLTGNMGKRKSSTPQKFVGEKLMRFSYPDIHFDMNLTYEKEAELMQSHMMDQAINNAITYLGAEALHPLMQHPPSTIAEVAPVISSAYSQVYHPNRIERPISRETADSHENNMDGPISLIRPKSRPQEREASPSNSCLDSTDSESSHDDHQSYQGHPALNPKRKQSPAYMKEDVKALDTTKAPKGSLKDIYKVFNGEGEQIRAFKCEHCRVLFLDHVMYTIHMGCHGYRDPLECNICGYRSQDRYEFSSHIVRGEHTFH
T3 sequence (Q96SW2 whole entry): as the sequence (Q96SW2 whole entry) above
T3 sequence (Q16531 whole entry partner): as the sequence (Q16531 whole entry partner) above
T6 sequence (Q96SW2 whole entry): as the sequence (Q96SW2 whole entry) above
T2 sequence (Q13422 whole entry): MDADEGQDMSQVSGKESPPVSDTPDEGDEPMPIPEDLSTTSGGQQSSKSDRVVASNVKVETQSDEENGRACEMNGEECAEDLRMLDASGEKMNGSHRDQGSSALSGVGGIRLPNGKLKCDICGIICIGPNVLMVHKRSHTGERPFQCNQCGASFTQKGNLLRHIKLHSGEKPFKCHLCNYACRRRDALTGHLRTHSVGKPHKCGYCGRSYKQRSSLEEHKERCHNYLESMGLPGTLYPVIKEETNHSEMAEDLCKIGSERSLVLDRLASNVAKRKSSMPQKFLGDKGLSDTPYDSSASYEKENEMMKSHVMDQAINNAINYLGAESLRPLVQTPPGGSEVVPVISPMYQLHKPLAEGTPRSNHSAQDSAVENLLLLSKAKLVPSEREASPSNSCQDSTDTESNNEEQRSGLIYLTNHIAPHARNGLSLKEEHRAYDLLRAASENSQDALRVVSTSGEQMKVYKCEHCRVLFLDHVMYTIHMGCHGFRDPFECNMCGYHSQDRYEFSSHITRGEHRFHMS
T2 sequence (Q96SW2 whole entry): as the sequence (Q96SW2 whole entry) above
T2 sequence (Q16531 whole entry partner): as the sequence (Q16531 whole entry partner) above
T5 sequence (P30291 whole entry): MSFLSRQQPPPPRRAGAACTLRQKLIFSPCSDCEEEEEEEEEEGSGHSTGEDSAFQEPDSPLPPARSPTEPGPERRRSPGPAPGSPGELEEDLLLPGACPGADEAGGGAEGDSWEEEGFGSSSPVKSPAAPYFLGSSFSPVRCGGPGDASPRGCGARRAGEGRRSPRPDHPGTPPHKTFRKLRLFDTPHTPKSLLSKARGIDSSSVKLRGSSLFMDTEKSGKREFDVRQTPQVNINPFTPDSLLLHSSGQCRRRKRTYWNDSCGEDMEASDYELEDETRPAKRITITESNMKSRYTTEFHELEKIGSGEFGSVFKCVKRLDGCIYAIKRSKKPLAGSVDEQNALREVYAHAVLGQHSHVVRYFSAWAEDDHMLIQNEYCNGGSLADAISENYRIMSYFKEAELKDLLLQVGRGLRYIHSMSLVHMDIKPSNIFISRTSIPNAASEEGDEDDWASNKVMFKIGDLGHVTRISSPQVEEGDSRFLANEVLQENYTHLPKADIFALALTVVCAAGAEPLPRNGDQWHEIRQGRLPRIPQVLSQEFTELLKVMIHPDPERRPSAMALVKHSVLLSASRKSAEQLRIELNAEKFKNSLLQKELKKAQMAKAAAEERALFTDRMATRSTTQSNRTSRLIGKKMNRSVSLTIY
T5 sequence (Q96SW2 whole entry): as the sequence (Q96SW2 whole entry) above
T5 sequence (Q16531 whole entry partner): as the sequence (Q16531 whole entry partner) above

A word on the inhibition: it is how much of the control response was suppressed. For `O=C1CCC(N2Cc3c(CN4CCn5c(nnc5C(F)(F)F)C4)cccc3C2=S)C(=O)N1` (centres unmarked) [GT-08365, 3-(1-thioxo-4-((3-(trifluoromethyl)-5,6-dihydro-[1,2,4]triazolo[4,3-a]pyrazin-7(8H)-yl)methyl)isoindolin-2-yl)piperidine-2,6-dione], the “CK1α substrate protein remaining %” value on CK1α is reported as “B (80%< substrate protein remaining %≤ 100%)”. Further, the “IKZF 1 substrate protein remaining %” value on IKZF1 was “B (80%< substrate protein remaining %≤ 100%)”. Besides, on IKZF2, the “IKZF2 substrate protein remaining %” value was “B (80%< substrate protein remaining %≤ 100%)”. On IKZF3, the “IKZF3 substrate protein remaining %” value is “B (80%< substrate protein remaining %≤ 100%)”. At WEE1, the “Wee1 substrate protein remaining %” value was “B (80%< substrate protein remaining %≤ 100%)”. Moreover, the “GSPT1 substrate protein remaining %” value with GSPT1 was “A (0% ≤ substrate protein remaining % ≤ 80%)”. Also, in experiment [1], the inhibition at 0.5 µM fell in the range of 40 to 53% and the inhibition at 2 µM lay in the range of 60 to 80%.

For the compound `O=C1CCC(N2Cc3c(CN4CCN(c5nsc6ccccc56)CC4)cccc3C2=S)C(=O)N1` (centres unmarked) [GT-08366, 3-(4-((4-(benzo[d]isothiazol-3-yl)piperazin-1-yl)methyl)-1-thioxoisoindolin-2-yl)piperidine-2,6-dione], the “CK1α substrate protein remaining %” value on CK1α is “B (80%< substrate protein remaining %≤ 100%)”. Also, the “IKZF 1 substrate protein remaining %” value at IKZF1 is reported as “B (80%< substrate protein remaining %≤ 100%)”. For the same compound, the “IKZF2 substrate protein remaining %” value on IKZF2 was “B (80%< substrate protein remaining %≤ 100%)”. Also, the “IKZF3 substrate protein remaining %” value on IKZF3 is “B (80%< substrate protein remaining %≤ 100%)”. In addition, the “Wee1 substrate protein remaining %” value on WEE1 is “A (0% ≤ substrate protein remaining % ≤ 80%)”. In the experiment on GSPT1, the “GSPT1 substrate protein remaining %” value was “B (80%< substrate protein remaining %≤ 100%)”. Besides, in experiment [1], the inhibition at 0.5 µM is 60 to 80% and the inhibition at 2 µM lay within 80 to 100%.

On to `O=C1CCC(N2Cc3c(CN4CCC(c5ccnc(Cl)c5Cl)CC4)cccc3C2=S)C(=O)N1` (centres unmarked) [GT-08458, 3-(4-((4-(2,3-dichloropyridin-4-yl)piperidin-1-yl)methyl)-1-thioxoisoindolin-2-yl)piperidine-2,6-dione], for which, at CK1α, the “CK1α substrate protein remaining %” value is given as “B (80%< substrate protein remaining %≤ 100%)”. In addition, the “IKZF 1 substrate protein remaining %” value on IKZF1 was “B (80%< substrate protein remaining %≤ 100%)”. Also, the “IKZF2 substrate protein remaining %” value at IKZF2 is recorded as “B (80%< substrate protein remaining %≤ 100%)”. In addition, at IKZF3, the “IKZF3 substrate protein remaining %” value was “B (80%< substrate protein remaining %≤ 100%)”. Also, the “Wee1 substrate protein remaining %” value at WEE1 is listed as “A (0% ≤ substrate protein remaining % ≤ 80%)”. Moreover, in the experiment with GSPT1, the “GSPT1 substrate protein remaining %” value is “B (80%< substrate protein remaining %≤ 100%)”. Besides, in experiment [1], the inhibition at 0.5 µM fell in the range of 53 to 60% and the inhibition at 2 µM is 80 to 100%.

As for `O=C1CCC(N2Cc3c(CN4CCC(c5ccnc(F)c5F)CC4)cccc3C2=S)C(=O)N1` (centres unmarked) [GT-08459, 3-(4-((4-(2,3-difluoropyridin-4-yl)piperidin-1-yl)methyl)-1-thioxoisoindolin-2-yl)piperidine-2,6-dione], at CK1α, the “CK1α substrate protein remaining %” value is “B (80%< substrate protein remaining %≤ 100%)”. Also, the “IKZF 1 substrate protein remaining %” value on IKZF1 was “B (80%< substrate protein remaining %≤ 100%)”. The “IKZF2 substrate protein remaining %” value on IKZF2 is given as “B (80%< substrate protein remaining %≤ 100%)”. In addition, the “IKZF3 substrate protein remaining %” value at IKZF3 is listed as “B (80%< substrate protein remaining %≤ 100%)”. On WEE1, the “Wee1 substrate protein remaining %” value was “A (0% ≤ substrate protein remaining % ≤ 80%)”. For the same compound, the “GSPT1 substrate protein remaining %” value in the experiment with GSPT1 is reported as “B (80%< substrate protein remaining %≤ 100%)”. Further, in experiment [1], the inhibition at 0.5 µM fell in the range of 60 to 80% and the inhibition at 2 µM lay in the range of 80 to 100%.

With `O=C1CCC(N2Cc3c(CN4CC=C(c5cncc(Cl)c5Cl)CC4)cccc3C2=S)C(=O)N1` (centres unmarked) [GT-08460, 3-(4-((4,5-dichloro-3',6'-dihydro-[3,4'-bipyridin]-1'(2'H)-yl)methyl)-1-thioxoisoindolin-2-yl)piperidine-2,6-dione], the “CK1α substrate protein remaining %” value on CK1α is “B (80%< substrate protein remaining %≤ 100%)”. Moreover, the “IKZF 1 substrate protein remaining %” value on IKZF1 was “B (80%< substrate protein remaining %≤ 100%)”. The “IKZF2 substrate protein remaining %” value at IKZF2 is reported as “B (80%< substrate protein remaining %≤ 100%)”. Also, the “IKZF3 substrate protein remaining %” value at IKZF3 is “A (0% ≤ substrate protein remaining % ≤ 80%)”. Moreover, the “Wee1 substrate protein remaining %” value at WEE1 is given as “A (0% ≤ substrate protein remaining % ≤ 80%)”. Further, the “GSPT1 substrate protein remaining %” value in the experiment on GSPT1 is “B (80%< substrate protein remaining %≤ 100%)”. Besides, in experiment [1], the inhibition at 0.5 µM is 60 to 80% and the inhibition at 2 µM lay in the range of 80 to 100%.

As for `O=C1CCC(N2Cc3c(CN4CC=C(c5cncc(Cl)c5)CC4)cccc3C2=S)C(=O)N1` (centres unmarked) [GT-08461, 3-(4-((5-chloro-3',6'-dihydro-[3,4'-bipyridin]-1'(2'H)-yl)methyl)-1-thioxoisoindolin-2-yl)piperidine-2,6-dione], the “CK1α substrate protein remaining %” value on CK1α was “B (80%< substrate protein remaining %≤ 100%)”. Besides, on IKZF1, the “IKZF 1 substrate protein remaining %” value is recorded as “B (80%< substrate protein remaining %≤ 100%)”. The “IKZF2 substrate protein remaining %” value at IKZF2 is “B (80%< substrate protein remaining %≤ 100%)”. Besides, at IKZF3, the “IKZF3 substrate protein remaining %” value is “A (0% ≤ substrate protein remaining % ≤ 80%)”. In addition, the “Wee1 substrate protein remaining %” value at WEE1 is “A (0% ≤ substrate protein remaining % ≤ 80%)”. The “GSPT1 substrate protein remaining %” value in the experiment with GSPT1 is listed as “B (80%< substrate protein remaining %≤ 100%)”. For the same compound, in experiment [1], the inhibition at 0.5 µM was 60 to 80% and the inhibition at 2 µM was 80 to 100%.

For the compound `O=C1CCC(N2Cc3c(CN4CC=C(c5ccnc(Cl)c5Cl)CC4)cccc3C2=S)C(=O)N1` (centres unmarked) [GT-08462, 3-(4-((2',3'-dichloro-3,6-dihydro-[4,4'-bipyridin]-1(2H)-yl)methyl)-1-thioxoisoindolin-2-yl)piperidine-2,6-dione], the “CK1α substrate protein remaining %” value at CK1α was “B (80%< substrate protein remaining %≤ 100%)”. Also, at IKZF1, the “IKZF 1 substrate protein remaining %” value is “B (80%< substrate protein remaining %≤ 100%)”. At IKZF2, the “IKZF2 substrate protein remaining %” value was “B (80%< substrate protein remaining %≤ 100%)”. The “IKZF3 substrate protein remaining %” value at IKZF3 was “B (80%< substrate protein remaining %≤ 100%)”. Moreover, the “Wee1 substrate protein remaining %” value at WEE1 is reported as “A (0% ≤ substrate protein remaining % ≤ 80%)”. Further, in the experiment on GSPT1, the “GSPT1 substrate protein remaining %” value is on record as “B (80%< substrate protein remaining %≤ 100%)”. Besides, in experiment [1], the inhibition at 0.5 µM fell in the range of 60 to 80% and the inhibition at 2 µM lay in the range of 80 to 100%.

For `O=C1CCC(N2Cc3c(CN4CC5CCC4CN5c4cccc(Cl)c4Cl)cccc3C2=S)C(=O)N1` (centres unmarked) [GT-08469, 3-(4-((5-(2,3-dichlorophenyl)-2,5-diazabicyclo[2.2.2]octan-2-yl)methyl)-1-thioxoisoindolin-2-yl)piperidine-2,6-dione], at CK1α, the “CK1α substrate protein remaining %” value is “B (80%< substrate protein remaining %≤ 100%)”. For the same compound, the “IKZF 1 substrate protein remaining %” value at IKZF1 was “B (80%< substrate protein remaining %≤ 100%)”. Also, on IKZF2, the “IKZF2 substrate protein remaining %” value is “B (80%< substrate protein remaining %≤ 100%)”. In addition, the “IKZF3 substrate protein remaining %” value at IKZF3 is on record as “B (80%< substrate protein remaining %≤ 100%)”. The “Wee1 substrate protein remaining %” value on WEE1 is “B (80%< substrate protein remaining %≤ 100%)”. Further, in the experiment on GSPT1, the “GSPT1 substrate protein remaining %” value is “A (0% ≤ substrate protein remaining % ≤ 80%)”. In experiment [1], the inhibition at 0.5 µM lay within 40 to 53% and the inhibition at 2 µM is 60 to 80%.

Regarding `O=C1CCC(N2Cc3c(CN4CC5CCC(C4)N5c4cccc(Cl)c4Cl)cccc3C2=S)C(=O)N1` (centres unmarked) [GT-08470, 3-(4-((8-(2,3-dichlorophenyl)-3,8-diazabicyclo[3.2.1]octan-3-yl)methyl)-1-thioxoisoindolin-2-yl)piperidine-2,6-dione], the “CK1α substrate protein remaining %” value at CK1α is on record as “B (80%< substrate protein remaining %≤ 100%)”. Besides, the “IKZF 1 substrate protein remaining %” value on IKZF1 is “B (80%< substrate protein remaining %≤ 100%)”. In addition, on IKZF2, the “IKZF2 substrate protein remaining %” value is “B (80%< substrate protein remaining %≤ 100%)”. The “IKZF3 substrate protein remaining %” value on IKZF3 is listed as “B (80%< substrate protein remaining %≤ 100%)”. Also, the “Wee1 substrate protein remaining %” value on WEE1 is “B (80%< substrate protein remaining %≤ 100%)”. Besides, the “GSPT1 substrate protein remaining %” value with GSPT1 is “A (0% ≤ substrate protein remaining % ≤ 80%)”. Also, in experiment [1], the inhibition at 0.5 µM was in the range of 20 to 30% and the inhibition at 2 µM fell in the range of 53 to 60%.

As to `O=C1CCC(N2Cc3c(CN4CCCN(c5cccc(Cl)c5Cl)CC4)cccc3C2=S)C(=O)N1` (centres unmarked) [GT-08472, 3-(4-((4-(2,3-dichlorophenyl)-1,4-diazepan-1-yl)methyl)-1-thioxoisoindolin-2-yl)piperidine-2,6-dione], the “CK1α substrate protein remaining %” value at CK1α is reported as “B (80%< substrate protein remaining %≤ 100%)”. The “IKZF 1 substrate protein remaining %” value on IKZF1 is reported as “B (80%< substrate protein remaining %≤ 100%)”. Besides, at IKZF2, the “IKZF2 substrate protein remaining %” value was “B (80%< substrate protein remaining %≤ 100%)”. In addition, the “IKZF3 substrate protein remaining %” value on IKZF3 is “B (80%< substrate protein remaining %≤ 100%)”. Further, the “Wee1 substrate protein remaining %” value on WEE1 was “B (80%< substrate protein remaining %≤ 100%)”. The “GSPT1 substrate protein remaining %” value in the experiment on GSPT1 is listed as “A (0% ≤ substrate protein remaining % ≤ 80%)”. Besides, in experiment [1], the inhibition at 0.5 µM fell in the range of 40 to 53% and the inhibition at 2 µM lay in the range of 80 to 100%.
